Patent publication US20130143929A1, “FUNGICIDAL IMIDAZOLES” (EI DU PONT DE NEMOURS AND COMPANY, priority 2010, published 2013)
Marks after values point to notes of the source that are not given here.

How the values were obtained:
Format in all cases: in vivo
[1] = tested on: Puccinia recondite f. sp. tritici (the causal agent of wheat leaf rust); assay: Test A: wheat leaf rust, preventive spray on wheat seedlings, visual disease rating; conditions: wheat leaf rust, preventive spray on wheat seedlings
Text: (§1) General protocol for preparing test suspensions for Tests A-D: the test compounds were first dissolved in acetone in an amount equal to 3% of the final volume and then suspended at the desired concentration (in ppm) in acetone and purified water (50/50 mix by volume) containing 250 ppm of the surfactant Trem® 014 (polyhydric alcohol esters). The resulting test suspensions were then used in Tests A-D. Spraying a 200 ppm test suspension to the point of run-off on the test plants was the equivalent of a rate of 800 g/ha.
The test suspension was sprayed to the point of run-off on wheat seedlings. The following day the seedlings were inoculated with a spore suspension of Puccinia recondite f. sp. tritici (the causal agent of wheat leaf rust) and incubated in a saturated atmosphere at 20° C. for 24 h, and then moved to a growth chamber at 20° C. for 7 days, after which time visual disease ratings were made.
(§2) Results for Tests A-E are given in Table A. In the Table, a rating of 100 indicates 100% disease control and a rating of 0 indicates no disease control (relative to the controls). A dash (—) indicates no test results. An asterisk “*” next to the rating value indicates a 40 ppm test suspension was used.

[2] = tested on: Blumeria graminis f. sp. tritici (also known as Erysiphe graminis f. sp. tritici, the causal agent of wheat powdery mildew); assay: Test D: wheat powdery mildew, preventive spray on wheat seedlings, visual disease rating; conditions: wheat powdery mildew, preventive spray on wheat seedlings
Text: as §1
The test suspension was sprayed to the point of run-off on wheat seedlings. The following day the seedlings were inoculated with a spore dust of Blumeria graminis f. sp. tritici, (also known as Erysiphe graminis f. sp. tritici, the causal agent of wheat powdery mildew) and incubated in a growth chamber at 20° C. for 8 days, after which time visual disease ratings were made.
as §2

[3] = tested on: Septoria tritici (the causal agent of wheat leaf blotch); assay: Test B: wheat leaf blotch, preventive spray on wheat seedlings, visual disease rating; conditions: wheat leaf blotch, preventive spray on wheat seedlings
Text: as §1
The test suspension was sprayed to the point of run-off on wheat seedlings. The following day the seedlings were inoculated with a spore suspension of Septoria tritici (the causal agent of wheat leaf blotch) and incubated in a saturated atmosphere at 24° C. for 48 h, and then moved to a growth chamber at 20° C. for 19 days, after which time visual disease ratings were made.
as §2

[4] = tested on: Botrytis cinerea (the causal agent of tomato Botrytis); assay: Test C: tomato Botrytis, preventive spray on tomato seedlings, visual disease rating; conditions: tomato Botrytis, preventive spray on tomato seedlings
Text: as §1
The test suspension was sprayed to the point of run-off on tomato seedlings. The following day the seedlings were inoculated with a spore suspension of Botrytis cinerea (the causal agent of tomato Botrytis) and incubated in a saturated atmosphere at 20° C. for 48 h, and then moved to a growth chamber at 24° C. for 3 days, after which time visual disease ratings were made.
as §2

[5] = no asterisk (standard test suspension concentration, not 40 ppm)
[6] = asterisk: 40 ppm test suspension

SMILES | Test A rating (100 = 100% disease control, 0 = no disease control relative to the controls) [1, 5] [%] | Test D rating (100 = 100% disease control, 0 = no disease control relative to the controls) [2, 5] [%] | Test B rating (100 = 100% disease control, 0 = no disease control relative to the controls) [3, 5] [%] | Test C rating (100 = 100% disease control, 0 = no disease control relative to the controls) [4, 5] [%] | Test A rating (100 = 100% disease control, 0 = no disease control relative to the controls) [1, 6] | Test D rating (100 = 100% disease control, 0 = no disease control relative to the controls) [2, 6] | Test B rating (100 = 100% disease control, 0 = no disease control relative to the controls) [3, 6] | Test C rating (100 = 100% disease control, 0 = no disease control relative to the controls) [4, 6]
Cc1nc(Cl)n(-c2ccc(F)cc2F)c1C(O)c1c(F)ccc(I)c1F (racemic) [compound 38] | 99 | 0 | 95 | 7 | – | – | – | –
OC(c1ccc(Cl)cc1)c1c(Cl)nc(Cl)n1-c1c(F)cc(F)cc1Cl (racemic) [compound 39] | 100 | 99 | 100 | 99 | – | – | – | –
OC(c1ccc(F)cc1F)c1c(Cl)nc(Cl)n1-c1c(F)cc(F)cc1Cl (racemic) [compound 40] | 100 | 100 | 100 | 100 | – | – | – | –
OC(c1ccc(F)cc1Cl)c1c(Cl)nc(Cl)n1-c1c(F)cccc1Cl (racemic) [compound 41] | 100 | 100 | 100 | 100 | – | – | – | –
OC(c1ccc(F)cc1Cl)c1c(Br)ncn1-c1ccc(F)cc1Cl (racemic) [compound 215] | – | – | – | – | 92* % | 0* % | 85* % | 55* %
COc1ccc(-n2c(C)nc(Br)c2C(O)c2ccc(F)cc2Cl)c(OC)c1 (racemic) [compound 217] | – | – | – | – | 0* % | 0* % | 0* % | 42* %
OC(c1ccc(F)cc1Cl)c1c(Br)nc(Cl)n1-c1ccc(F)cc1Cl (racemic) [compound 218] | – | – | – | – | 100* % | 89* % | 100* % | 100* %
COc1ccc(C(O)c2c(C)nc(Cl)n2-c2ccc(Cl)cc2Cl)c(Cl)c1 (racemic) [compound 219] | – | – | – | – | 99* % | 21* % | 100* % | 98* %
COc1ccc(C(O)c2c(C)nc(Cl)n2-c2c(F)cccc2F)c(C)c1 (racemic) [compound 220] | – | – | – | – | 100* % | 97* % | 100* % | 100* %
COc1ccc(C(O)c2c(C)nc(Cl)n2-c2c(F)cccc2F)c(Cl)c1 (racemic) [compound 221] | – | – | – | – | 100* % | 97* % | 100* % | 99* %
COc1ccc(C(O)c2c(Br)ncn2-c2c(F)cccc2Cl)c(C)c1 (racemic) [compound 222] | – | – | – | – | 91* % | 0* % | 57* % | 30* %
COc1ccc(C(O)c2c(Br)nc(C)n2-c2c(F)cccc2Cl)c(C)c1 (racemic) [compound 224] | – | – | – | – | 100* % | 100* % | 100* % | 100* %
Cc1cccc(C)c1-n1c(C)nc(Br)c1C(O)c1ccc(F)cc1Cl (racemic) [compound 225] | 89 | 0 | 83 | 37 | – | – | – | –
Cc1cccc(C)c1-n1c(C)nc(Cl)c1C(O)c1ccc(F)cc1Cl (racemic) [compound 226] | 94 | 0 | 98 | 6 | – | – | – | –
Cc1ncc(C(O)c2c(F)cc(F)cc2F)n1-c1c(Cl)cccc1Cl (racemic) [compound 227] | 84 | 0 | 83 | 40 | – | – | – | –
COc1cc(C)c(C(O)c2c(Br)ncn2-c2ccc(F)cc2Cl)cc1Br (racemic) [compound 229] | – | – | – | – | 68* % | 0* % | 36* % | 0* %
COc1ccc(C(O)c2c(Br)ncn2-c2ccc(F)cc2Cl)c(F)c1 (racemic) [compound 230] | – | – | – | – | 97* % | 0* % | 50* % | 99* %
